Measured values: the NIST ThermoML archive (doi:10.1021/je400486p)

Assay: refractive index (Na D-line) (dimensionless); xn = mol fraction of the nth substance listed
Settings: 101.3 kPa, Liquid, Standard Abbe refractometry

COCCOCCOCCOCCOC [2,5,8,11,14-pentaoxapentadecane] + CCC(C)O
refractive index
Settings | x2 = 0 | x2 = 0.1007 | x2 = 0.2003 | x2 = 0.3015 | x2 = 0.3991 | x2 = 0.5011 | x2 = 0.6024 | x2 = 0.6997 | x2 = 0.7998 | x2 = 0.9004
288.15 K | 1.4345 | 1.43266 | 1.43063 | 1.42851 | 1.42627 | 1.42333 | 1.41994 | 1.41632 | 1.41171 | 1.40624
293.15 K | 1.43238 | 1.43054 | 1.42851 | 1.42637 | 1.42412 | 1.42118 | 1.41778 | 1.41418 | 1.4096 | 1.40412
298.15 K | 1.43027 | 1.42843 | 1.42637 | 1.42424 | 1.42197 | 1.41902 | 1.41562 | 1.41202 | 1.40743 | 1.40197
303.15 K | 1.42815 | 1.42631 | 1.42424 | 1.4221 | 1.41983 | 1.41687 | 1.41347 | 1.40983 | 1.40522 | 1.39977
308.15 K | 1.42603 | 1.4242 | 1.42212 | 1.41998 | 1.41768 | 1.41473 | 1.41133 | 1.40765 | 1.40302 | 1.39751
313.15 K | 1.42394 | 1.42209 | 1.42001 | 1.41785 | 1.4155 | 1.41255 | 1.40915 | 1.40543 | 1.40077 | 1.39524
318.15 K | 1.42183 | 1.42003 | 1.4179 | 1.41571 | 1.41339 | 1.41039 | 1.40698 | 1.40327 | 1.39857 | 1.393
323.15 K | 1.41973 | 1.41794 | 1.4158 | 1.4136 | 1.41127 | 1.40823 | 1.40477 | 1.40104 | 1.39628 | 1.39067

CN1CCCC1=O [N-methylpyrrolidone] + CCC(C)O
refractive index
Settings | x2 = 0 | x2 = 0.1049 | x2 = 0.2001 | x2 = 0.3009 | x2 = 0.4019 | x2 = 0.5003 | x2 = 0.5995 | x2 = 0.7004 | x2 = 0.7985 | x2 = 0.899
288.15 K | 1.47166 | 1.46489 | 1.45851 | 1.45151 | 1.44431 | 1.43715 | 1.42982 | 1.42227 | 1.41487 | 1.40724
293.15 K | 1.46952 | 1.46273 | 1.45634 | 1.44937 | 1.44219 | 1.43504 | 1.42772 | 1.42016 | 1.41275 | 1.40512
298.15 K | 1.46736 | 1.46061 | 1.45418 | 1.4473 | 1.44013 | 1.43298 | 1.42564 | 1.41806 | 1.41063 | 1.40302
303.15 K | 1.4652 | 1.45844 | 1.45203 | 1.44515 | 1.43799 | 1.43083 | 1.42349 | 1.41587 | 1.40842 | 1.40081
308.15 K | 1.46306 | 1.45632 | 1.44987 | 1.44301 | 1.43583 | 1.42867 | 1.42131 | 1.41372 | 1.40626 | 1.39861
313.15 K | 1.46095 | 1.45416 | 1.44773 | 1.44083 | 1.43366 | 1.42651 | 1.41919 | 1.41155 | 1.40406 | 1.39638
318.15 K | 1.45891 | 1.45204 | 1.44559 | 1.43868 | 1.43152 | 1.42436 | 1.41701 | 1.40934 | 1.40181 | 1.39408
323.15 K | 1.4568 | 1.44996 | 1.4435 | 1.43654 | 1.42934 | 1.42215 | 1.41481 | 1.40711 | 1.39955 | 1.39172
